The record followed here is patent USRE47786E1, “Haloalkyl heteroaryl benzamide compounds” (Romark Laboratories, L.C., priority 2009, dated 2019).

Structures are written as SMILES. Where only a bound is given, the exact number is not on record here.

The test system of one data set is HBV. Put plainly: HBV extracellular virion antiviral assay in 2.2.15 cells. It counts as cell-based. To be noted: Hepatitis B virus, extracellular virion HBV DNA, nine daily doses. How it is done:
(§1) HBV antiviral assays were conducted as previous described [Korba and Gerin, Antiviral Res. 19:55 (1992 Confluent cultures of 2.2.15 cells were maintained on 96-well flat-bottomed tissue culture plates (confluence in this culture system is required for active, high levels of HBV replication equivalent to that observed in chronically-infected individuals [Sells et al. J. Virol. 62, 2836-2844 (1988); Korba and Gerin (1992)]. Cultures were treated with nine consecutive daily doses of the test compounds. HBV DNA levels were assessed by quantitative blot hybridization 24 hr. after the last treatment. Cytotoxicity was assessed by uptake of neutral red dye 24 hr. following the last treatment.
EC50, EC90 and CC50 values (±standard deviations [S.D.]) were calculated by linear regression analysis using data combined from all treated cultures (Korba and Gerin, 1992; Okuse et al., 2005). […] CC50 is the drug concentration at which a 2-fold lower level of neutral red dye uptake (relative to the average levels in untreated cultures) was observed. Selectivity index (S.I.) was calculated as CC50/EC90 for HBV assays and CC50/EC50 for HCV assays. EC90 values were used for calculation of the S.I. in HBV assays since at least a 3-fold depression of HBV DNA levels is typically required to achieve statistical significance in this assay system (Korba and Gerin, 1992). For combination treatments, EC50, EC90, CC50 and S.I. are presented for the first compound listed. The molar ratio of the compounds in each combination is also indicated.

Data set [1] can be described thus: Cytotoxicity by neutral red dye uptake in HBV assay cultures. It counts as cell-based. To be noted: human, confluent 2.2.15 cells (HBV-replicating), nine daily doses. How it is done: as §1
(§2) EC50, EC90 and CC50 values (±standard deviations [S.D.]) were calculated by linear regression analysis using data combined from all treated cultures (Korba and Gerin, 1992; Okuse et al., 2005). EC50 and EC90 are drug concentrations at which a 2-fold, or a 10-fold depression of intracellular HBV DNA or HCV RNA (relative to the average levels in untreated cultures), respectively, was observed. CC50 is the drug concentration at which a 2-fold lower level of neutral red dye uptake (relative to the average levels in untreated cultures) was observed. Selectivity index (S.I.) was calculated as CC50/EC90 for HBV assays and CC50/EC50 for HCV assays. EC90 values were used for calculation of the S.I. in HBV assays since at least a 3-fold depression of HBV DNA levels is typically required to achieve statistical significance in this assay system (Korba and Gerin, 1992). For combination treatments, EC50, EC90, CC50 and S.I. are presented for the first compound listed. The molar ratio of the compounds in each combination is also indicated.

A further data set has as its system Hep-2 cells. To be noted: human.
Data set [2] concerns HCV replicon cell line, AVAS (sub-genomic CONI, genotype 1b). Kind of data set: Primary HCV replicon cell assay, genotype 1B. To be noted: Hepatitis C virus, 72 h. In kind it is cell-based. How it is done: (§3) Antiviral activity of test compounds was assessed in a 3-day assay using the stably-expressing HCV replicon cell line, AVAS (sub-genomic CONI, genotype 1b) [Blight et al., Science 290, 1972-1974 (2000)] maintained as sub-confluent cultures on 96-well plates as previously described (Okuse et al., Antiviral Research 65, 23-34 (2005)]. Antiviral activity was determined by blot hybridization analysis of intracellular HCV RNA (normalized to the level of cellular B-actin RNA in each culture sample) and cytotoxicity was assessed by neutral red dye uptake after 3 days of treatment. Additional studies were performed using Huh7 cells containing another HCV replicon, H/FL-Neo, a genotype 1a full length construct [Blight et al., J. Virol. 77, 3181-3190 (2003)]. For studies involving human serum, standard culture medium (which contains 10% fetal bovine serum) and assay conditions were maintained.
as §2
On the technique in general: Replicon systems follow genome replication, usually without infectious particles.

The nature of data set [3]: Cytotoxicity by neutral red dye uptake in HCV replicon cells. It counts as cell-based. The note with it: human, HCV replicon cell line AVAS (sub-genomic CONI), HCV replicon cells genotype 1B. How it is done: as §3, §2
The test system of a further data set is A72 cells. Put plainly: Toxicity (MTT) in A72 cells.
For the next data set, the system named is 37RC cells. Put plainly: Toxicity (MTT) in 37RC cells.
The test system of a further data set is MDCK cells. Kind of data set: Toxicity (MTT) in MDCK cells.
The next data set relates to HeLa cells. Put plainly: Toxicity (MTT) in HeLa cells.
Data set [4] has as its system MA104 cells. Kind of data set: Toxicity (MTT) in MA104 cells (Rhabdovirus section).
The subject of data set [5] is HeLa R19 cells. Kind of data set: Toxicity (MTT) in HeLa R19 cells (Rhinovirus section).
Data set [6] concerns HeLa R19 cells. Put plainly: Toxicity (MTT) in HeLa R19 cells (Adenovirus section).
The test system of data set [7] is MA104 cells. Put plainly: Toxicity (MTT) in MA104 cells (Rotavirus SA11 section).
For data set [8], the system named is MA104 cells. Kind of data set: Toxicity (MTT) in MA104 cells (Rotavirus WAG8P1 section).

Regarding `O=C(Nc1nc(C(F)(F)F)cs1)c1ccccc1O` [Compound 4], in the data set on HBV, the EC50 was above 4 µM and the EC90 is above 4 µM. In addition, in [1], the CC50 at 9 days was above 100 µM. The “Toxicity LD50 (MTT)” value in the data set with Hep-2 cells is above 50 µg/mL.
As for `O=C(Nc1ncc([N+](=O)[O-])s1)c1ccccc1O` [Tizoxanide], the figures for the half-maximal effective concentration (EC50) (with HBV; in data set [2]) were 0.05 to 0.2 µM and 0.05 to 0.5 µM, respectively. Also, the concentration for an effect of 90% (EC90) with HBV was in the range of 0.8 to 3.2 µM; in [2], 0.5 to 10 µM. For the same compound, the CC50 at 9 days in data set [1] is above 100 µM. Also, the CC50 at 3 days in data set [3] was 15 µM. Besides, the “Toxicity LD50 (MTT)” value in the data set on Hep-2 cells is 50 µg/mL; in the data set with A72 cells it was above 50 µg/mL; in the data set on 37RC cells it was above 50 µg/mL; with MDCK cells it was above 50 µg/mL; with HeLa cells it was 3 µg/mL; in the data set on MA104 cells [4] it was 50 µg/mL. Further, the “Toxicity LD50 (MTT)” value with HeLa R19 cells [5] is above 50 µg/mL; in the data set on HeLa R19 cells [6] it was 0.8 µg/mL; in the data set on MA104 cells [7], above 50 µg/mL; in the data set on MA104 cells [8] it was above 50 µg/mL.
As for `CC(=O)Oc1ccccc1C(=O)Nc1nnc(C(F)(F)F)s1` [Compound 5], the EC50 in the data set on HBV is above 4 µM; in data set [2] it was below 5 µM. The EC90 in the data set with HBV is above 4 µM; in [2], above 5 µM. For the same compound, the CC50 at 9 days in data set [1] was above 100 µM. Besides, the CC50 at 3 days in [3] came out at 15 µM. Further, the “Toxicity LD50 (MTT)” value with 37RC cells and in the data set on MDCK cells was above 50 µg/mL throughout.
Turning to `CC(=O)Oc1ccccc1C(=O)Nc1ncc([N+](=O)[O-])s1` [Nitazoxanide, reference compound], the results for the concentration giving a half-maximal response (EC50) (in the data set with HBV; in data set [2]) were 0.05 to 0.2 µM and 0.05 to 0.5 µM, respectively. Further, the EC90 is 0.8 to 3.2 µM with HBV and 0.5 to 10 µM in data set [2]. Besides, in data set [1], the CC50 at 9 days is above 100 µM. Further, the half-maximal cytotoxic concentration (CC50) at 3 days in data set [3] stood at 32 µM. The “Toxicity LD50 (MTT)” value in the data set with Hep-2 cells, in the data set on 37RC cells, in the data set on MDCK cells, with HeLa R19 cells [5], with HeLa R19 cells [6] and with MA104 cells [7] was above 50 µg/mL in each case. Moreover, the “Toxicity LD50 (MTT)” value in the data set with MA104 cells [8] is above 50 µg/mL.
Turning to `CC(=O)Oc1ccccc1C(=O)Nc1nc(C(F)(F)F)cs1` [Compound 3], in the data set with HBV, the half-maximal effective concentration (EC50) was above 4 µM and the EC90 is above 4 µM. The CC50 at 9 days in [1] was above 100 µM. In the data set on Hep-2 cells, the “Toxicity LD50 (MTT)” value is above 50 µg/mL.
Turning to `O=C(Nc1nnc(C(F)(F)F)s1)c1ccccc1O` [Compound 6], the EC50 with HBV is above 4 µM; in data set [2] it was below 5 µM. Moreover, the EC90 with HBV was above 4 µM; in [2], above 5 µM. The CC50 at 9 days in data set [1] is above 100 µM. Further, the CC50 at 3 days in data set [3] amounted to 5.3 µM. Besides, in the data set on Hep-2 cells, the “Toxicity LD50 (MTT)” value was above 50 µg/mL.
In the case of `O=C(Nc1ncc(C(F)(F)F)s1)c1ccccc1O` [Compound 2], the melting point was 260 to 264 °C (dec.). Besides, in the data set with HBV, the EC50 lay within 3.2 to 4 µM and the EC90 is above 4 µM. Also, in data set [1], the CC50 at 9 days was above 100 µM. In data set [2], the half-maximal effective concentration (EC50) is 0.005 to 0.05 µM and the concentration for an effect of 90% (EC90) lay in the range of 0.005 to 0.05 µM. Moreover, in [3], the CC50 at 3 days amounted to 0.46 µM.
`CC(=O)Oc1ccccc1C(=O)Nc1ncc(C(F)(F)F)s1` [Compound 1]: the values for the EC50 (in the data set on HBV; in data set [2]) were 3.2 to 4 µM and below 5 µM, respectively. In addition, the 90% effect concentration (EC90) in the data set with HBV was above 4 µM; in data set [2] it was above 5 µM. In addition, the CC50 at 9 days in data set [1] was above 100 µM. The CC50 at 3 days in data set [3] came out at 3.7 µM. Further, the “Toxicity LD50 (MTT)” value in the data set on Hep-2 cells is above 50 µg/mL; with HeLa R19 cells [5], above 50 µg/mL; with HeLa R19 cells [6] it was 4 µg/mL.

The term EC50 denotes the concentration that produces a half-maximal response. In general, EC90 refers to the concentration at which the effect reaches the 90% level. By CC50 is commonly meant the concentration giving 50% cytotoxicity. As a reminder, the melting point is the temperature, or range, at which the solid turns liquid.
